# According to US20230145793A1, “SUBSTITUTED PYRIMIDINE OR PYRIDINE AMINE DERIVATIVE, COMPOSITION THEREOF, AND MEDICAL USE THEREOF” (SHANGHAI HAIYAN PHARMACEUTICAL TECHNOLOGY CO., LTD., priority 2020, published 2023):
# Biological target: T1, A2A receptor (Homo sapiens, UniProt P29274)
# T1 construct: host or cells: CHO-K1 (co-expressing Gα15)
# Assay: Test 1: inhibitory activity to the A2A receptor, cAMP HTRF in CHO-K1/ADORA2A/Gα15 cells, NECA 50 nM
# Assay type: cell-based
# Method: (§1) Test 1: Inhibitory Activities to the A2A Receptor and the A2B Receptor CHO-K1/ADORA2A/Gα15 (GenScript, M00246) and CHO-K1/ADORA2B/Gα15 (GenScript, M00329) cells were cultured in a Ham's F-12 (Gibco, 31765092) medium containing 10% FBS, Zeocin (200 ug/mL), and Hygromycin B (100 ug/mL), or containing 10% FBS, G418 (400 ug/mL), and Hygromycin B (100 ug/mL) under culture conditions specified in the corresponding instruction. Screening procedure was as follows: 1. The cell density was adjusted with a serum-free medium to 6×10^5 cells/mL. 2. 5 uL of cell solution, 2.5 μL of NECA (Sigma, 119140-10MG), and 2.5 μL of compound solution were placed into each well of a 384-well plate (Greiner Bio-One, 784075) in sequence, the final concentration of NECA was 50 nM (CHO-K1/ADORA2A) or 10 nM (CHO-K1/ADORA2B), and the compound solution was subjected to 3-fold dilution from the final concentration of 3 uM. 3. The cells were placed still and cultured in an incubator at 37° C. for 30 min. 4. 5 μL of cAMP-d2 and 5 μL of cAMP-ab (Cisbio, 62AM4PEB) were added in sequence. 5. The 384-well plate was placed in dark at the room temperature for 1 h. 6. The plate was read (Victor X5, PerkinElmer), data were analyzed by XLfit nonlinear regression, and IC50 values of the compounds were calculated.
# T1 sequence (P29274 whole entry): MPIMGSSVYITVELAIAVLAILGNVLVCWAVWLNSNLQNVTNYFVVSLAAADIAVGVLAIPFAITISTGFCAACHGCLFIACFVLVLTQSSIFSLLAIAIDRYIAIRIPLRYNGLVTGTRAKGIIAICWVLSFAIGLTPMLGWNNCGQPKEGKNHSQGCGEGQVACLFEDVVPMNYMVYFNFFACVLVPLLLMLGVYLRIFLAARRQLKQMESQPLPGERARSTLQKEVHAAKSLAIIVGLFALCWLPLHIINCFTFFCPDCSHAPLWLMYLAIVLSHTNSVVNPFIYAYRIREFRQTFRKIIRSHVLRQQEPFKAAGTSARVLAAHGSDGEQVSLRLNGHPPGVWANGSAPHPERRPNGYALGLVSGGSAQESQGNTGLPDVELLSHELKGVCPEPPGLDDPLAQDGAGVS
row,SMILES,IC50 [µM]
1,Cc1c(C#N)cccc1-c1nc(N)c(F)c(-c2cn(Cc3cccc(C(C)(C)O)n3)nn2)n1 [Compound L-1],0.001
2,Cc1c(C#N)cccc1-c1nc(N)c(Cl)c(-c2cn(Cc3cccn(C(C)C)c3=O)nn2)n1 [Compound L-8],< 0.001

# Other lines, results leading:
row,IC50 [µM],SMILES
1,< 0.001,Cc1c(C#N)cccc1-c1nc(N)c(F)c(-c2cn(Cc3ccn(C4CCOCC4)n3)nn2)n1 [Compound L-89]
2,0.002,Cc1c(C#N)cccc1-c1nc(N)c(F)c(-c2cn(Cc3cccc(CN4CCOCC4)n3)nn2)n1 [Compound L-70]
3,0.004,Cc1c(C#N)cccc1-c1nc(N)c(Cl)c(-c2cn(Cc3cc[nH]n3)nn2)n1 [Compound L-20]
4,0.002,Cc1c(C#N)cccc1-c1nc(N)c(F)c(-c2cn(Cc3ccn(CC4CC4)n3)nn2)n1 [Compound L-39]

# Biological target: T2, A2B receptor (Homo sapiens, UniProt P29275)
# T2 construct: host or cells: CHO-K1 (co-expressing Gα15)
# T2 sequence (P29275 1-332): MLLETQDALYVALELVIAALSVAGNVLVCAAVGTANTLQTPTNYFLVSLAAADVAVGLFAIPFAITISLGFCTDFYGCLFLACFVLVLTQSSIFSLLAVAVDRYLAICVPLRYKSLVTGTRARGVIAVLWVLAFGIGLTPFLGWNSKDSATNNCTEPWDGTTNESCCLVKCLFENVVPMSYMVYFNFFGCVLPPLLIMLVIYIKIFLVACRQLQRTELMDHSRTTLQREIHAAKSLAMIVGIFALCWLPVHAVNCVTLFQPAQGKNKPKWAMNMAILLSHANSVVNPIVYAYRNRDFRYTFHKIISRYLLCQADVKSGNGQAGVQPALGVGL
# Assay: Test 1: inhibitory activity to the A2B receptor, cAMP HTRF in CHO-K1/ADORA2B/Gα15 cells, NECA 10 nM
# Assay type: cell-based
# Method: as §1
row,SMILES,IC50 [µM]
1,Cc1c(C#N)cccc1-c1nc(N)c(F)c(-c2cn(Cc3cccc(C(C)(C)O)n3)nn2)n1 [Compound L-1],0.003
2,Cc1c(C#N)cccc1-c1nc(N)c(Cl)c(-c2cn(Cc3cccn(C(C)C)c3=O)nn2)n1 [Compound L-8],0.003

# Results, then the compound that gave them:
row,IC50 [µM],SMILES
1,0.005,Cc1c(C#N)cccc1-c1nc(N)c(F)c(-c2cn(Cc3ccn(C4CCOCC4)n3)nn2)n1 [Compound L-89]
2,0.013,Cc1c(C#N)cccc1-c1nc(N)c(F)c(-c2cn(Cc3cccc(CN4CCOCC4)n3)nn2)n1 [Compound L-70]
3,0.012,Cc1c(C#N)cccc1-c1nc(N)c(Cl)c(-c2cn(Cc3cc[nH]n3)nn2)n1 [Compound L-20]
4,0.007,Cc1c(C#N)cccc1-c1nc(N)c(F)c(-c2cn(Cc3ccn(CC4CC4)n3)nn2)n1 [Compound L-39]

# Biological target: T1, A2A receptor
# Assay: Test 2: inhibitory activity to the A2A receptor, cAMP HTRF in CHO-K1/ADORA2A/Gα15 cells, NECA 1 uM
# Assay type: cell-based
# Method: (§2) Test 2: Inhibitory Activities to the A2A Receptor and the A2B Receptor
# (§3) Screening procedure was as follows:
# (§4) 1. The cell density was adjusted with a serum-free medium to 6×10^5 cells/mL.
# (§5) 3. The cells were placed still and cultured in an incubator at 37° C. for 30 min.
# (§6) 4. 5 μL of cAMP-d2 and 5 μL of cAMP-ab (Cisbio, 62AM4PEB) were added in sequence.
# (§7) 5. The 384-well plate was placed in dark at the room temperature for 1 h.
# (§8) 6. The plate was read (Victor X5, PerkinElmer), data were analyzed by XLfit nonlinear regression, and IC50 values of the compounds were calculated.
row,SMILES,IC50 [µM]
1,"Cc1c(C#N)cccc1-c1cc(-c2cn(Cc3cccc(C(C)(C)O)n3)nn2)nc(N)n1 [Compound D1, reference compound]",0.065
2,Cc1c(C#N)cccc1-c1nc(N)c(F)c(-c2cn(Cc3cccc(C(C)(C)O)n3)nn2)n1 [Compound L-1],0.024

# Further lines, results first:
row,IC50 [µM],SMILES
1,0.011,Cc1c(C#N)cccc1-c1nc(N)c(F)c(-c2cn(Cc3ccn(C4CCOCC4)n3)nn2)n1 [Compound L-89]
2,0.016,Cc1c(C#N)cccc1-c1nc(N)c(F)c(-c2cn(Cc3nc(C(C)(C)O)ccc3O)nn2)n1 [Compound L-94]

# Biological target: T2, A2B receptor
# Assay: Test 2: inhibitory activity to the A2B receptor, cAMP HTRF in CHO-K1/ADORA2B/Gα15 cells, NECA 0.1 uM
# Assay type: cell-based
# Method: as §2, §3, §4, §5, §6, §7, §8
row,SMILES,IC50 [µM]
1,"Cc1c(C#N)cccc1-c1cc(-c2cn(Cc3cccc(C(C)(C)O)n3)nn2)nc(N)n1 [Compound D1, reference compound]",0.075
2,Cc1c(C#N)cccc1-c1nc(N)c(F)c(-c2cn(Cc3cccc(C(C)(C)O)n3)nn2)n1 [Compound L-1],0.062

# Further lines, results first:
row,IC50 [µM],SMILES
1,0.068,Cc1c(C#N)cccc1-c1nc(N)c(F)c(-c2cn(Cc3ccn(C4CCOCC4)n3)nn2)n1 [Compound L-89]
2,0.038,Cc1c(C#N)cccc1-c1nc(N)c(F)c(-c2cn(Cc3nc(C(C)(C)O)ccc3O)nn2)n1 [Compound L-94]
